The source of these data is PubChem BioAssay (NCI).

Among the test systems are MDA-MB-435; NCI-H23 lung; SK-MEL-5 melanoma; HCT-116 colon; ACHN renal; MCF7 breast; IGROV1 ovarian; SK-MEL-28 melanoma; SK-MEL-2 melanoma; TK-10 renal.
Holding throughout (test): NCI tumour cell line growth inhibition, 48 h

Molecules are shown by their SMILES.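 Five concentrations, 48 hours, 96-well plates. GI50 is the concentration that inhibits growth by half. The concentration for full growth arrest is given as TGI.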 Where only a bound is given, the exact number is not on record here.

Take `COc1cc2c(/C=C3/C(=O)Nc4cccc(Cl)c43)c(Cl)n(Cc3ccccc3)c2cc1C`: the GI50 is 1.11 µM in the assay with MDA-MB-435; 4.59 µM with NCI-H23 lung; 2.17 µM with SK-MEL-5 melanoma; 4.19 µM with HCT-116 colon; 3.58 µM with ACHN renal; 3.88 µM in the assay with MCF7 breast. Moreover, the GI50 with IGROV1 ovarian is 7.42 µM; in the assay on SK-MEL-28 melanoma it was 4.98 µM; in the assay with SK-MEL-2 melanoma it was 11 µM; in the assay with TK-10 renal it was 10.4 µM. In addition, the TGI is 5.82 µM with MDA-MB-435; 15 µM in the assay with NCI-H23 lung; 11.5 µM in the assay with SK-MEL-5 melanoma; 55.6 µM in the assay with HCT-116 colon; 33.3 µM in the assay with ACHN renal; greater than 45.3 µM with MCF7 breast. The TGI was greater than 100 µM in the assay with IGROV1 ovarian, 43.7 µM in the assay with SK-MEL-28 melanoma, 68.2 µM in the assay on SK-MEL-2 melanoma and greater than 76.2 µM in the assay on TK-10 renal.

Take `COc1cc(Cn2c(-c3ccccc3)cc3c2-c2oncc2CC3)cc(OC)c1OC`: the GI50 is 0.248 µM in the assay on MDA-MB-435; 2.57 µM in the assay on NCI-H23 lung; 0.882 µM in the assay on SK-MEL-5 melanoma; 0.464 µM with HCT-116 colon; 0.961 µM with ACHN renal; 0.443 µM with MCF7 breast. The GI50 was 2.64 µM with IGROV1 ovarian, 1.14 µM in the assay with SK-MEL-28 melanoma, 18.6 µM with SK-MEL-2 melanoma and 7.7 µM in the assay on TK-10 renal. The TGI in the assay with MDA-MB-435 is 0.905 µM; with NCI-H23 lung it was greater than 100 µM; with SK-MEL-5 melanoma it was 16.8 µM; in the assay with HCT-116 colon it was 91.7 µM; in the assay with ACHN renal it was greater than 100 µM; in the assay on MCF7 breast, 22.3 µM. Also, the TGI in the assay with IGROV1 ovarian is greater than 100 µM; in the assay with SK-MEL-28 melanoma it was 45.9 µM; with SK-MEL-2 melanoma, greater than 100 µM; in the assay with TK-10 renal, greater than 100 µM.

For `COc1ccc(-c2cc3c(nn2)-c2ccccc2C3=O)cc1`, the GI50 with MDA-MB-435 is greater than 100 µM; in the assay with NCI-H23 lung, greater than 100 µM; in the assay on SK-MEL-5 melanoma it was greater than 100 µM; in the assay with HCT-116 colon, 70.2 µM; in the assay on ACHN renal, greater than 100 µM; in the assay with MCF7 breast, 36.1 µM. Moreover, the GI50 with IGROV1 ovarian, with SK-MEL-28 melanoma and with TK-10 renal was greater than 100 µM each time. Also, the TGI in the assay on MDA-MB-435, in the assay with NCI-H23 lung, in the assay on SK-MEL-5 melanoma, with HCT-116 colon, in the assay with ACHN renal and in the assay with MCF7 breast was greater than 100 µM throughout. Further, the TGI in the assay with IGROV1 ovarian was greater than 100 µM; in the assay on SK-MEL-28 melanoma, greater than 100 µM; in the assay with SK-MEL-2 melanoma it was greater than 10 µM; in the assay with TK-10 renal, greater than 100 µM.

With `NCCCCn1c2c(c3ccccc3c1=O)C(=O)c1ccccc1-2`, the GI50 with MDA-MB-435 was 0.717 µM; with NCI-H23 lung, 0.129 µM; in the assay with SK-MEL-5 melanoma, 0.153 µM; in the assay on HCT-116 colon, 0.092 µM; in the assay with ACHN renal it was 0.0161 µM; with MCF7 breast, less than 0.0359 µM. In addition, the GI50 in the assay with IGROV1 ovarian was 0.314 µM; in the assay on SK-MEL-28 melanoma it was 0.671 µM; with SK-MEL-2 melanoma it was 2.38 µM; with TK-10 renal it was 0.226 µM. For the same molecule, the TGI was 2.28 µM in the assay with MDA-MB-435; 0.655 µM in the assay on NCI-H23 lung; 1.25 µM in the assay on SK-MEL-5 melanoma; 1.76 µM with HCT-116 colon; 0.123 µM with ACHN renal; greater than 42.4 µM in the assay on SK-MEL-2 melanoma. Also, the TGI in the assay with TK-10 renal amounted to 1.25 µM.

With `C[C@]12CC[C@@H]3c4ccc(O)cc4CC[C@H]3[C@@H]1CC[C@@H]2NS(=O)(=O)c1ccc(C(F)(F)F)cc1`, the GI50 in the assay on MDA-MB-435 is 2.12 µM; in the assay on NCI-H23 lung, 2.08 µM; in the assay on SK-MEL-5 melanoma, 1.7 µM; with HCT-116 colon it was 1.74 µM; in the assay with ACHN renal, 1.63 µM; with MCF7 breast it was 2.26 µM. The GI50 was 2.45 µM in the assay on IGROV1 ovarian, 1.68 µM with SK-MEL-28 melanoma, 2.13 µM in the assay with SK-MEL-2 melanoma and 3.28 µM in the assay on TK-10 renal. For the same molecule, the TGI came out at 5 µM with MDA-MB-435; 5.43 µM with NCI-H23 lung; 3.07 µM in the assay on SK-MEL-5 melanoma; 3.19 µM in the assay with HCT-116 colon; 3.06 µM with ACHN renal; 5 µM with MCF7 breast. Moreover, the TGI with IGROV1 ovarian worked out at 6.23 µM; in the assay with SK-MEL-28 melanoma, 3.08 µM; in the assay on SK-MEL-2 melanoma it was 4 µM; in the assay with TK-10 renal, 8.53 µM.

For the molecule `O=[N+]([O-])c1ccc2nnnn2c1`, the TGI is 32.8 µM in the assay with MDA-MB-435; greater than 100 µM in the assay with NCI-H23 lung; 41.4 µM in the assay on SK-MEL-5 melanoma; 50.6 µM with HCT-116 colon; greater than 100 µM with ACHN renal; greater than 100 µM with MCF7 breast. Further, the TGI in the assay on IGROV1 ovarian is greater than 100 µM; in the assay on SK-MEL-28 melanoma, 61.8 µM; in the assay with SK-MEL-2 melanoma it was 67.1 µM; in the assay on TK-10 renal it was greater than 100 µM.

Turning to `Cc1cc(C)cc(Nc2cc(C)nc3nc(C(F)(F)F)nn23)c1`, the GI50 was greater than 100 µM in the assay with MDA-MB-435; greater than 100 µM in the assay with NCI-H23 lung; greater than 100 µM in the assay with SK-MEL-5 melanoma; 85 µM in the assay on HCT-116 colon; 58.7 µM with ACHN renal; greater than 100 µM with MCF7 breast. Moreover, the GI50 in the assay on IGROV1 ovarian, in the assay on SK-MEL-28 melanoma, in the assay on SK-MEL-2 melanoma and in the assay on TK-10 renal was greater than 100 µM each time. In addition, the TGI in the assay with MDA-MB-435, in the assay with NCI-H23 lung, with SK-MEL-5 melanoma, in the assay on HCT-116 colon, in the assay on ACHN renal and in the assay with MCF7 breast was greater than 100 µM in each case. The TGI in the assay with IGROV1 ovarian, with SK-MEL-28 melanoma, in the assay on SK-MEL-2 melanoma and in the assay with TK-10 renal was greater than 100 µM each time.

Take `O=C(C[C@@H](C(=O)NCc1cccc(C(F)(F)F)c1)N1C(=O)[C@@H](N2C(=O)OC[C@@H]2c2ccccc2)[C@H]1/C=C/c1ccccc1)NC1CCN(Cc2ccccc2)CC1`: the GI50 with MDA-MB-435 is 2.45 µM; with NCI-H23 lung it was 4.19 µM; with SK-MEL-5 melanoma, 3.47 µM; in the assay on HCT-116 colon, 1.95 µM; in the assay with ACHN renal, 31.2 µM; in the assay on MCF7 breast, 1.61 µM. Moreover, the GI50 in the assay on IGROV1 ovarian was 13.3 µM; in the assay with SK-MEL-28 melanoma it was 2.19 µM; with SK-MEL-2 melanoma, 14.1 µM; in the assay on TK-10 renal, 10.2 µM. Besides, the TGI was 7.66 µM with MDA-MB-435; 17.6 µM with NCI-H23 lung; 12.5 µM with SK-MEL-5 melanoma; 4.04 µM in the assay with HCT-116 colon; greater than 100 µM in the assay with ACHN renal; 3.51 µM in the assay with MCF7 breast. Moreover, the TGI in the assay with IGROV1 ovarian came out at 32.4 µM; in the assay on SK-MEL-28 melanoma, 5.8 µM; in the assay with SK-MEL-2 melanoma it was 30.6 µM; with TK-10 renal, 23.4 µM.
